The text below walks through data of US8835445B2, “Dihydrofolate reductase inhibitors” (Trius Therapeutics, Inc., priority 2010, dated 2014).

The test system of one assay is S. aureus. Put plainly: Antibacterial activity (MIC), whole-cell bacterial growth inhibition. It is filed as cell-based, Staphylococcus aureus. The settings on record: for MIC: Staphylococcus aureus. The text has this:
Antibacterial activity as measured by the minimal inhibitory concentrations (MIC) and minimal bactericidal concentrations of compounds are well known (see., e.g., National Committee for Clinical Laboratory Standards 2000 Performance standards for antimicrobial disk susceptibility tests: approved standard, 7th ed. M2-A7, vol. 20, no. 1, Committee for Clinical Laboratory Standards, Wayne, Pa.) In vitro testing for antibacterial activity may be accomplished through use of a whole-cell bacterial growth inhibition assay. For example, an […] assay identifies a substance that inhibits bacterial growth. Microtiter plates are prepared with serial dilutions of the test compound, adding to the preparation a given amount of growth substrate, and providing a preparation of bacteria. Inhibition of bacterial growth is determined, for example, by observing changes in optical densities of the bacterial cultures. Inhibition of bacterial growth is determined, for example, by comparing (in the presence and absence of a test compound) the rate of growth or the absolute growth of bacterial cells. Inhibition includes a reduction of one of the above measurements by at least 20%.

A further assay deals with human DHFR (Homo sapiens (Human), UniProt P00374). Put plainly: DHFR enzymatic inhibition (Ki), human DHFR. It is filed as biochemical.
Sequence of human DHFR (P00374 whole entry): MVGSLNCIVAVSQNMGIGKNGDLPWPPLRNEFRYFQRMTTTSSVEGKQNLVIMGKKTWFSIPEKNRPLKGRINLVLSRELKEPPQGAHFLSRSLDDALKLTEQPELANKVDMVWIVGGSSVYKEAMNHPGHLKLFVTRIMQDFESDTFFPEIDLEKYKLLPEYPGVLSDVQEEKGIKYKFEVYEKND
A further assay deals with S. aurues DHFR (Staphylococcus aureus, UniProt P0A017). Put plainly: biochemical. It is filed as biochemical.
The mark [1] stands for this setting: S. aureus in 20% serum, read-out: MIC in μg/ml S. aureus in 20% serum.
Setting [2] is: S. aureus, read-out: MIC in μg/ml S. aureus.

The structures appear in SMILES notation. In brackets after ≈: the same amount, converted by molar mass. Where two headings read alike, the source gives them in different places.

For orientation: Ki means the dissociation constant of the complex between target and ligand, obtained from inhibition or displacement. High values mean a looser hold on the target, low ones a stronger hold on the target. As for `Cc1cc2c(N)nc(N)nc2cc1-c1cccc2[nH]ccc12` [Compound 9, 7-(1H-indol-4-yl)-6-methylquinazoline-2,4-diamine], the MIC in the assay on S. aureus (setting [1]) is 1 µg/mL (≈ 3.46 µM); in the assay on S. aureus (setting [2]) it was 0.25 µg/mL (≈ 0.864 µM). The Ki at human DHFR was found to be 245 nM; on S. aurues DHFR (S. aureus DHFR), 0.61 nM.
In the case of `Cc1cc2nc(-c3nccs3)n(-c3cc4nc(N)nc(N)c4cc3C)c2cc1C` [Compound 26, 7-(5,6-dimethyl-2-(thiazol-2-yl)-1H-benzo[d]-imidazol-1-yl)-6-methylquin-azoline-2,4-diamine], the MIC in the assay on S. aureus (setting [1]) and with S. aureus (setting [2]) was ≤ 0.125 µg/mL in each case. In addition, the Ki amounted to 2.9 nM at human DHFR and 0.03 nM on S. aurues DHFR.
Consider `Cc1c(C(=O)OC(C)(C)C)nc(-c2cccs2)n1-c1ccc2c(N)nc(N)nc2c1` [Compound 39, tert-butyl 1-(2,4-diaminoquinazolin-7-yl)-5-methyl-2-thiophen-2-yl)-1H-imidazole-4-carboxylate], for which the figures for the MIC in the assay with S. aureus (setting [1]) and in the assay on S. aureus (setting [2]) were 2 µg/mL (≈ 4.73 µM) and 1 µg/mL (≈ 2.37 µM), respectively.
Turning to `COc1cc(-c2cc3nc(N)nc(N)c3cc2C)c(Cl)cn1` [Compound 28, 7-(5-chloro-2-methoxypyridin-4-yl)-6-methylquin-azoline-2,4-diamine], the MIC turned out to be 1 µg/mL (≈ 3.17 µM) in the assay with S. aureus (setting [1]) and 0.5 µg/mL (≈ 1.58 µM) in the assay on S. aureus (setting [2]). Also, the Ki at human DHFR is 56 nM; on S. aurues DHFR (S. aureus DHFR), 0.72 nM.
On the same counts, the results for `Cc1cc2nc(N3CCOCC3)n(-c3ccc4c(N)nc(N)nc4c3)c2cc1C` [Compound 19, 7-(5,6-dimethyl-2-morpholino-1H-benzo[d]-imidazol-1-yl)quinazoline-2,4-diamine] are 4 µg/mL (≈ 10.3 µM), 1 µg/mL (≈ 2.57 µM), 1090 nM and 0.6 nM.
Regarding `COc1cc2nc(-c3nccs3)n(-c3ccc4c(N)nc(N)nc4c3)c2cc1OC` [Compound 35], the MIC with S. aureus (setting [1]) and in the assay on S. aureus (setting [2]) was 0.25 µg/mL (≈ 0.596 µM) in each case. Moreover, the results for the Ki at human DHFR and on S. aurues DHFR (S. aureus DHFR) were 854 nM and 0.16 nM, respectively.
As for `COc1ccc(OC)c(-c2cc3nc(N)nc(N)c3cc2C)c1` [Compound 8, 7-(2,5-dimethoxyphenyl)-6-methylquin-azoline-2,4-diamine], the MIC in the assay on S. aureus (setting [1]) and in the assay on S. aureus (setting [2]) was 1 µg/mL (≈ 3.22 µM) throughout. Moreover, the Ki at human DHFR came to 27.5 nM; at S. aurues DHFR, 0.66 nM.
Consider `CC(=O)c1cccc(-c2cc3nc(N)nc(N)c3cc2C)c1` [Compound 7, 1-(3-(2,4-diamino-6-methylquinazolin-7-yl)-phenyl)ethanone], for which the MIC with S. aureus (setting [1]) worked out at 1 µg/mL (≈ 3.42 µM); in the assay with S. aureus (setting [2]) it was 0.5 µg/mL (≈ 1.71 µM). Also, the values for the Ki on human DHFR and at S. aurues DHFR (S. aureus DHFR) were 26.3 nM and 0.48 nM, respectively.
For `COc1cc(-c2cc3nc(N)nc(N)c3cc2C)cc(OC)c1OC` [Compound 33, 6-methyl-7-(3,4,5-trimethoxyphenyl) quinazoline-2,4-diamine] the same measures were 1 µg/mL (≈ 2.94 µM), ≤ 0.5 µg/mL, 47.1 nM and 0.91 nM.
Regarding `Cc1cc2nc(-c3nccs3)n(-c3ccc4c(N)nc(N)nc4c3)c2cc1C` [Compound 22, 7-[5,6-dimethyl-2-(thiazol-2-yl)-1H-benzo[d]-imidazol-1-yl]quinazoline-2,4-diamine], the MIC with S. aureus (setting [1]) and in the assay with S. aureus (setting [2]) was ≤ 0.125 µg/mL each time. In addition, the Ki at human DHFR came to 93.5 nM; on S. aurues DHFR (S. aureus DHFR) it was 0.002 nM.
Take `CCOc1ccc(C(=O)N(CC)CC)cc1-c1cc2nc(N)nc(N)c2cc1C` [Compound 40, 3-(2,4-diamino-6-methylquinazolin-7-yl)-4-ethoxy-N,N-diethylbenzamide]: the MIC with S. aureus (setting [1]) and in the assay on S. aureus (setting [2]) was 0.25 µg/mL (≈ 0.635 µM) in each case. Moreover, the inhibition constant Ki at human DHFR was 34 nM; at S. aurues DHFR (S. aureus DHFR), 0.025 nM.
Take `COc1cc2nc(-c3nccs3)n(-c3cc4nc(N)nc(N)c4cc3Cl)c2cc1OC` [Compound 23, 6-chloro-7-(5,6-dimethoxy-2-(thiazol-2-yl)-1H-benzo[d]imidazol-1-yl)quinazo-line-2,4-diamine]: the MIC in the assay on S. aureus (setting [1]) is 0.5 µg/mL (≈ 1.1 µM); in the assay on S. aureus (setting [2]) it was ≤ 0.125 µg/mL. The inhibitory constant (Ki) on human DHFR was 320 nM; on S. aurues DHFR (S. aureus DHFR), 0.011 nM.
As to `Cc1cc2nc(-c3nccs3)n(-c3cc4nc(N)nc(N)c4cc3Cl)c2cc1C` [Compound 34, 6-chloro-7-(5,6-dimethyl-2-(thiazol-2-yl)-1H-benzo[d]imidazol-1-yl)quinazoline-2,4-diamine], the “MIC in μg/ml S. aureus” value against S. aureus (S. aureus) was “≦0.125 μg/ml”. Also, the “MIC in μg/ml S. aureus in 20% serum” value against S. aureus (S. aureus in 20% serum) was determined as 2 µg/mL (≈ 4.74 µM). The inhibitory constant (Ki) at human DHFR amounted to 8.8 nM; on S. aurues DHFR (S. aureus DHFR), 0.016 nM.
With `Cc1cc2c(N)nc(N)nc2cc1-c1ccc(N)cc1` [Compound 5, 7-(4-aminophenyl)-6-methylquinazoline-2,4-diamine], the MIC in the assay with S. aureus (setting [1]) and with S. aureus (setting [2]) was 1 µg/mL (≈ 3.77 µM) each time. Moreover, the Ki is 138 nM on human DHFR and 0.89 nM on S. aurues DHFR (S. aureus DHFR).
As to `COc1ccc2nc(SCCC(C)(F)F)n(-c3ccc4c(N)nc(N)nc4c3)c2c1` [Compound 20, 7-(2-(3,3-difluorobutylthio)-6-methoxy-1H-benzo-[d]imidazol-1-yl)quinazoline-2,4-diamine], the results for the MIC in the assay with S. aureus (setting [1]) and in the assay on S. aureus (setting [2]) were 4 µg/mL (≈ 9.29 µM) and 0.5 µg/mL (≈ 1.16 µM), respectively. Moreover, the inhibition constant (Ki) at human DHFR came to 586 nM; on S. aurues DHFR (S. aureus DHFR), 0.12 nM.
For `Cc1cc2nc(-c3cccs3)n(-c3ccc4c(N)nc(N)nc4c3)c2cc1C` [Compound 18, 7-(5,6-dimethyl-2-(thiophen-2-yl)-1H-benzo[d]-imidazol-1-yl)quinazoline-2,4-diamine] the same measures were 0.5 µg/mL (≈ 1.29 µM), ≤ 0.125 µg/mL, 1030 nM and 0.005 nM.
With `Cc1cc2c(N)nc(N)nc2cc1-c1c[nH]c2ccccc12` [Compound 41, 7-(1H-indol-3-yl)-6-methylquinazoline-2,4-diamine], the MIC in the assay on S. aureus (setting [1]) was determined as 0.5 µg/mL (≈ 1.73 µM); in the assay with S. aureus (setting [2]), 0.25 µg/mL (≈ 0.864 µM). The Ki at human DHFR was found to be 50.5 nM; at S. aurues DHFR (S. aureus DHFR), 0.11 nM.
On the same counts, the results for `Nc1ccc(-c2ccc3c(N)nc(N)nc3c2)cc1` [Compound 4, 7-(4-aminophenyl)quinazoline-2,4-diamine] are 2 µg/mL (≈ 7.96 µM), 4 µg/mL (≈ 15.9 µM), 702 nM and 2.7 nM.
For the compound `Nc1nc(N)c2ccc(-c3ccccc3N)cc2n1` [Compound 2, 7-(2-aminophenyl)quinazoline-2,4-diamine], the MIC in the assay with S. aureus (setting [1]) and in the assay with S. aureus (setting [2]) was 8 µg/mL (≈ 31.8 µM) each time. The Ki at human DHFR stood at 3920 nM; on S. aurues DHFR (S. aureus DHFR), 15.3 nM.
Take `COc1ccc(-c2cc3nc(N)nc(N)c3cc2Cn2ccnc2)cc1OC` [Compound 10, 6-((1H-imidazol-1-yl)methyl)-7-(3,4-dimethoxyphenyl)quinazoline-2,4-diamine]: the MIC in the assay on S. aureus (setting [1]) came out at 2 µg/mL (≈ 5.31 µM); in the assay with S. aureus (setting [2]), 8 µg/mL (≈ 21.3 µM). Besides, the Ki on human DHFR is 53.6 nM; at S. aurues DHFR (S. aureus DHFR), 0.51 nM.
For `Cc1ccc2c(c1)nc(-c1cccs1)n2-c1ccc2c(N)nc(N)nc2c1` [Compound 36] the same measures were 1 µg/mL (≈ 2.68 µM), 1 µg/mL (≈ 2.68 µM), 314 nM and 0.005 nM.
On the same counts, the results for `COc1cnc(Cl)cc1-c1cc2nc(N)nc(N)c2cc1C` [Compound 38, 7-(2-chloro-5-methyloxypyridin-4-yl)-6-methylquinazoline-2,4-diamine] are 1 µg/mL (≈ 3.17 µM), 1 µg/mL (≈ 3.17 µM), 52.4 nM and 1.4 nM.
On the same counts, the results for `COc1ccc2nc(-c3ccco3)n(-c3ccc4c(N)nc(N)nc4c3)c2n1` [Compound 37] are 0.5 µg/mL (≈ 1.34 µM), 0.25 µg/mL (≈ 0.67 µM), 797 nM and 0.039 nM.
Regarding `COc1ncc(-c2cc3nc(N)nc(N)c3cc2C)c(OC)n1` [Compound 29, 7-(2,4-dimethoxypyrimidin-5-yl)-6-methylquinazo-line-2,4-diamine], the MIC in the assay on S. aureus (setting [1]) and in the assay with S. aureus (setting [2]) was 0.5 µg/mL (≈ 1.6 µM) in each case. For the same compound, the Ki turned out to be 54.7 nM at human DHFR and 0.4 nM at S. aurues DHFR (S. aureus DHFR).
Take `CC(=O)c1cccc(-c2ccc3c(N)nc(N)nc3c2)c1` [Compound 6, 1-(3-(2,4-diaminoquinazolin-7-yl)-phenyl)ethanone]: the results for the MIC in the assay on S. aureus (setting [1]) and in the assay with S. aureus (setting [2]) were 8 µg/mL (≈ 28.7 µM) and 4 µg/mL (≈ 14.4 µM), respectively. Also, the Ki on human DHFR worked out at 323 nM; at S. aurues DHFR (S. aureus DHFR), 4.4 nM.
On the same counts, the results for `Cc1cc2c(N)nc(N)nc2cc1-c1cc(N)cc(C#N)c1` [Compound 12, 3-amino-5-(2,4-diamino-6-methylquin-azolin-7-yl)benzonitrile] are 1 µg/mL (≈ 3.44 µM), 1 µg/mL (≈ 3.44 µM), 44 nM and 0.65 nM.
For `Cc1cc2nc(C3CC3)n(-c3ccc4c(N)nc(N)nc4c3)c2cc1C` [Compound 15, 7-(2-cyclopropyl-5,6-dimethyl-1H-benzo[d]-imidazol-1-yl)quinazoline-2,4-diamine] the same measures were 1 µg/mL (≈ 2.9 µM), ≤ 0.5 µg/mL, 1160 nM and 0.14 nM.
For `COc1cc2nc(-c3nccs3)n(-c3cc4nc(N)nc(N)c4cc3C)c2cc1OC` [Compound 24, 7-(5,6-dimethoxy-2-(thiazol-2-yl)-1H-benzo[d]-imidazol-1-yl)-6-methylquin-azoline-2,4-diamine] the same measures were ≤ 0.5 µg/mL, ≤ 0.5 µg/mL, 170 nM and 0.019 nM.
